Reference: patent publication US10202411B2, “3′-substituted methyl or alkynyl nucleosides nucleotides for the treatment of HCV” (priority 2014, dated 2019)
Like-named read-outs stand apart in the source and are kept apart here.

How the values were obtained:
HCV genotype 1b replicon = assay: HCV replicon assay (Zluc luciferase reporter); type: cell-based; settings: Huh-7-derived Zluc cells, genotype 1b replicon, luciferase, 72 hours, read-out: HCV Replicon EC50
Procedure: Huh-7-derived cell line (Zluc) that harbors an HCV genotype 1b replicon and a luciferase reporter gene was grown in Dulbecco's Modified Eagle Medium (DMEM) supplemented with 10% fetal bovine serum, 2 mM GlutaMAX, 1% MEM nonessential amino acids, 100 IU/mL penicillin, 100 μg/mL streptomycin, and 0.5 mg/mL Geneticin® (G418). For dose response testing the cells were seeded in 96-well plates at 7.5×10^3 cells per well in a volume of 50 μL, and incubated at 37° C./5% CO2. Drug solutions were made up freshly in Huh-7 media as 2× stocks. Ten additional 5-fold dilutions were prepared from these stocks in DMEM without G418. At least three hours after Zluc cells were seeded, drug treatment was initiated by adding 50 μL of drug dilutions to the plates in duplicate. Final concentrations of drug ranged from 100 μM to 0.0000512 μM. Cells were then incubated at 37° C./5% CO2. Alternatively, compounds were tested at two concentrations (1 μM and 10 μM). […] After 72 hours of incubation, the inhibition of HCV replication was measured by quantification of photons emitted after mono-oxygenation of 5′-fluoroluciferin to oxyfluoroluciferin by firefly luciferase. For this, media was removed from the plates via gentle tapping. Fifty microliters of ONE-glo luciferase assay reagent was added to each well. The plates were shaken gently for 3 min at room temperature and luminescence was measured on a Victor^3 V 1420 multilabel counter (Perkin Elmer) with a 1 second read time using a 700 nm cut-off filter. The EC50 values were calculated from dose response curves from the resulting best-fit equations determined by Microsoft Excel and XLfit 4.1 software. When screening at two fixed concentrations, the results were expressed as % inhibition at 1 μM and 10 μM.

in vitro = settings: human
Zluc cells = assay: Cytotoxicity evaluation, CellTiter-Blue Cell Viability Assay; settings: read-out: HCV Replicon CC50; Zluc cells, CellTiter-Blue cell viability

C[C@@H](NP(=O)(OC[C@H]1O[C@@H](n2ccc(=O)[nH]c2=O)[C@H](O)[C@@H]1CO)Oc1ccccc1)C(=O)OCc1ccccc1 (single isomer, unassigned) [Compound 123a Diastereomer 1]
EC50 (HCV genotype 1b replicon; Hepatitis C virus): > 10 µM | CC50 (in vitro): > 50 µM

O=c1ccn([C@@H]2O[C@@H]3COP(=O)(O)OC[C@H]3[C@H]2O)c(=O)[nH]1 [Compound 118]
EC50 (HCV genotype 1b replicon; Hepatitis C virus): > 10 µM | CC50 (in vitro): > 50 µM

O=c1ccn([C@@H]2O[C@@H]3COP(=O)(OCc4ccccc4)OC[C@H]3[C@H]2O)c(=O)[nH]1 (mixture of isomers) [Compound 113 (Mixture of diastereomers)]
EC50 (HCV genotype 1b replicon; Hepatitis C virus): > 10 µM | CC50 (in vitro): > 50 µM

CC(C)OP1(=O)OC[C@H]2[C@@H](O)[C@H](n3ccc(=O)[nH]c3=O)O[C@@H]2CO1 (single isomer, unassigned) [Compound 108 (Diastereomer 2)]
EC50 (HCV genotype 1b replicon): > 10 µM | CC50 (Zluc cells): > 50 µM

CC(C)OP1(=O)OC[C@H]2[C@@H](O)[C@H](n3ccc(=O)[nH]c3=O)O[C@@H]2CO1 (single isomer, unassigned) [Compound 108 (Diastereomer 1)]
EC50 (HCV genotype 1b replicon; Hepatitis C virus): > 10 µM | CC50 (in vitro): > 50 µM

C[C@@H](NP(=O)(OC[C@H]1O[C@@H](n2ccc(=O)[nH]c2=O)[C@H](O)[C@@H]1CO)Oc1ccccc1)C(=O)OCc1ccccc1 (single isomer, unassigned) [Compound 123a Diastereomer 2]
EC50 (HCV genotype 1b replicon): > 10 µM | CC50 (Zluc cells): > 50 µM

CC(=O)OC[C@H]1[C@@H](OC(C)=O)[C@H](n2ccc(N)nc2=O)O[C@@H]1CO [Compound 213]
EC50 (HCV genotype 1b replicon; Hepatitis C virus): > 10 µM | CC50 (in vitro): > 50 µM

Nc1ncnc2c1ncn2[C@@H]1O[C@H](CO)[C@@H](CO)[C@H]1O [Compound 207]
EC50 (HCV genotype 1b replicon; Hepatitis C virus): > 10 µM | CC50 (in vitro): > 50 µM

CC(C)(CO)C(=O)SCCOP1(=O)OC[C@H]2[C@@H](O)[C@H](n3ccc(=O)[nH]c3=O)O[C@@H]2CO1 (single isomer, unassigned) [Compound 109 (Diastereomer 2)]
EC50 (HCV genotype 1b replicon): > 10 µM

CC(C)(CO)C(=O)SCCO[PH](=O)OC[C@H]1O[C@@H](n2ccc(=O)[nH]c2=O)[C@H](O)[C@@H]1CO (mixture of isomers) [Compound 107 (Mixture of diastereomers)]
EC50 (HCV genotype 1b replicon; Hepatitis C virus): > 10 µM | CC50 (in vitro): > 50 µM

CC(C)OC(=O)CCCOP1(=O)OC[C@H]2[C@@H](O)[C@H](n3ccc(=O)[nH]c3=O)O[C@@H]2CO1 (single isomer, unassigned) [Compound 112 (Diastereomer 2)]
EC50 (HCV genotype 1b replicon): > 10 µM

Nc1ncnc2c1ncn2[C@@H]1O[C@H](CO)[C@@H](CF)[C@H]1O [Compound 225]
EC50 (HCV genotype 1b replicon; Hepatitis C virus): > 10 µM | CC50 (in vitro): > 50 µM

Nc1ccn([C@@H]2O[C@H](CO)[C@@H](CO)[C@H]2O)c(=O)n1 [Compound 206]
EC50 (HCV genotype 1b replicon; Hepatitis C virus): > 10 µM | CC50 (in vitro): > 50 µM

Nc1ccn([C@@H]2O[C@H](CO)[C@@H](C(F)F)[C@H]2O)c(=O)n1 [Compound 203]
EC50 (HCV genotype 1b replicon; Hepatitis C virus): > 10 µM | CC50 (in vitro): > 50 µM

O=c1ccn([C@@H]2O[C@@H]3COP(=O)(OCc4ccccc4)OC[C@H]3[C@H]2O)c(=O)[nH]1 (single isomer, unassigned) [Compound 113 (Diastereomer 1)]
EC50 (HCV genotype 1b replicon; Hepatitis C virus): > 10 µM | CC50 (in vitro): > 50 µM

O=c1ccn([C@@H]2O[C@H](CO)[C@@H](CF)[C@H]2O)c(=O)[nH]1 [Compound 202]
EC50 (HCV genotype 1b replicon; Hepatitis C virus): > 10 µM | CC50 (in vitro): > 50 µM

Nc1nc(SCCO)c2ncn([C@@H]3O[C@H](CO)[C@@H](CO)[C@H]3O)c2n1 [Compound 209]
EC50 (HCV genotype 1b replicon): > 10 µM | CC50 (Zluc cells): > 50 µM

CC(C)(C)C(=O)SCCOP(=O)(OCCSC(=O)C(C)(C)C)OC[C@H]1O[C@@H](n2cnc3c(=O)[nH]c(N)nc32)[C@H](O)[C@@H]1CO [Compound 101]
EC50 (HCV genotype 1b replicon; Hepatitis C virus): > 10 µM | CC50 (in vitro): > 50 µM

CC(C)(CO)C(=O)SCCOP1(=O)OC[C@H]2[C@@H](O)[C@H](n3ccc(=O)[nH]c3=O)O[C@@H]2CO1 (single isomer, unassigned) [Compound 109 (Diastereomer 1)]
EC50 (HCV genotype 1b replicon; Hepatitis C virus): > 10 µM | CC50 (in vitro): > 50 µM

CC(C)OC(=O)CCCOP1(=O)OC[C@H]2[C@@H](O)[C@H](n3ccc(=O)[nH]c3=O)O[C@@H]2CO1 (single isomer, unassigned) [Compound 112 (Diastereomer 1)]
EC50 (HCV genotype 1b replicon; Hepatitis C virus): > 10 µM | CC50 (in vitro): > 50 µM

Nc1nc2c(ncn2[C@@H]2O[C@H](CO)[C@@H](CO)[C@H]2O)c(=O)[nH]1 [Compound 208]
EC50 (HCV genotype 1b replicon): > 10 µM | CC50 (Zluc cells): > 50 µM

CC(C)OC(=O)[C@@H](C)NP1(=O)OC[C@H]2[C@@H](O)[C@H](n3ccc(=O)[nH]c3=O)O[C@@H]2CO1 (single isomer, unassigned) [Compound 110a (Diastereomer 1)]
EC50 (HCV genotype 1b replicon; Hepatitis C virus): > 10 µM | CC50 (in vitro): > 50 µM

O=c1ccn([C@@H]2O[C@H](CO)[C@@H](CO)[C@H]2O)c(=O)[nH]1 [Compound 205]
EC50 (HCV genotype 1b replicon; Hepatitis C virus): > 10 µM | CC50 (in vitro): > 50 µM

Nc1ccn([C@@H]2O[C@H](CO)[C@@H](CF)[C@H]2O)c(=O)n1 [Compound 204]
EC50 (HCV genotype 1b replicon; Hepatitis C virus): > 10 µM | CC50 (in vitro): > 50 µM

CC(C)OC(=O)CCCOP1(=O)OC[C@H]2[C@@H](O)[C@H](n3ccc(=O)[nH]c3=O)O[C@@H]2CO1 (mixture of isomers) [Compound 112 (Mixture of diastereomers)]
EC50 (HCV genotype 1b replicon; Hepatitis C virus): > 10 µM | CC50 (in vitro): > 50 µM

CC(=O)OC[C@H]1[C@@H](OC(C)=O)[C@H](n2ccc(=O)[nH]c2=O)O[C@@H]1CO [Compound 212]
EC50 (HCV genotype 1b replicon; Hepatitis C virus): > 10 µM | CC50 (in vitro): > 50 µM

CCOc1nc(N)nc2c1ncn2[C@@H]1O[C@H](CO)[C@@H](CO)[C@H]1O [Compound 227]
EC50 (HCV genotype 1b replicon; Hepatitis C virus): > 10 µM | CC50 (in vitro): > 50 µM

CCOC(=O)[C@H](CC(C)C)NP(=O)(N[C@@H](CC(C)C)C(=O)OCC)OC[C@H]1O[C@@H](n2cnc3c(OCC)nc(N)nc32)[C@H](O)[C@@H]1CF [Compound 129a]
EC50 (HCV genotype 1b replicon; Hepatitis C virus): > 10 µM | CC50 (in vitro): > 50 µM

C[C@@H](NP1(=O)OC[C@H]2[C@@H](O)[C@H](n3ccc(=O)[nH]c3=O)O[C@@H]2CO1)C(=O)OCc1ccccc1 (single isomer, unassigned) [Compound 120a (Diastereomer 1)]
EC50 (HCV genotype 1b replicon; Hepatitis C virus): > 10 µM | CC50 (in vitro): > 50 µM

CCOC(=O)OC(C)OP(=O)(N[C@H](C(=O)OC)C(C)C)OC[C@H]1O[C@@H](n2cnc3c(OCC)nc(N)nc32)[C@H](O)[C@@H]1CF (mixture of isomers) [Compound 128a Mixture of diastereomers]
EC50 (HCV genotype 1b replicon; Hepatitis C virus): > 10 µM | CC50 (in vitro): > 50 µM

Nc1nc2c(ncn2[C@@H]2O[C@H](CO)[C@@H](CF)[C@H]2O)c(=O)[nH]1 [Compound 226]
EC50 (HCV genotype 1b replicon; Hepatitis C virus): > 10 µM | CC50 (in vitro): > 50 µM

CC(C)(CO)C(=O)SCCOP1(=O)OC[C@H]2[C@@H](O)[C@H](n3ccc(=O)[nH]c3=O)O[C@@H]2CO1 (mixture of isomers) [Compound 109 (Mixture of diastereomers)]
EC50 (HCV genotype 1b replicon; Hepatitis C virus): > 10 µM | CC50 (in vitro): > 50 µM

O=c1ccn([C@@H]2O[C@H](CO[PH](=O)OCc3ccccc3)[C@@H](CO)[C@H]2O)c(=O)[nH]1 (mixture of isomers) [Compound 114 (Mixture of diastereomers)]
EC50 (HCV genotype 1b replicon; Hepatitis C virus): > 10 µM | CC50 (in vitro): > 50 µM

CC(O)[C@H]1[C@@H](O)[C@H](n2ccc(=O)[nH]c2=O)O[C@@H]1CO (single isomer, unassigned) [Compound 211 (Single Isomer)]
EC50 (HCV genotype 1b replicon; Hepatitis C virus): > 10 µM | CC50 (in vitro): > 50 µM

C[C@@H](NP(=O)(OC[C@H]1O[C@@H](n2cnc3c(=O)[nH]c(N)nc32)[C@H](O)[C@@H]1CF)Oc1ccccc1)C(=O)OC1CCCC1 (single isomer, unassigned) [Compound 124a Diastereomer 1]
EC50 (HCV genotype 1b replicon; Hepatitis C virus): > 10 µM | CC50 (in vitro): > 50 µM

CC(C)OC(=O)CCCOP(=O)(O)OC[C@H]1O[C@@H](n2ccc(=O)[nH]c2=O)[C@H](O)[C@@H]1CO [Compound 115]
EC50 (HCV genotype 1b replicon; Hepatitis C virus): > 10 µM | CC50 (in vitro): > 50 µM

O=c1ccn([C@@H]2O[C@H](CO)[C@@H](C(F)F)[C@H]2O)c(=O)[nH]1 [Compound 201]
EC50 (HCV genotype 1b replicon; Hepatitis C virus): > 10 µM | CC50 (in vitro): > 50 µM
